# Test results taken from patent publication US6599522B2, “Triglyceride reducing agent” (priority 2000, dated 2003).
# Several values for one entry are separate records, joined by “and”; a condition that tells them apart may be missing. Equal entries are not always repeated. Where two headings read alike, the source gives them in different places. Marks after values point to notes of the source that are not given here.
# Assays:
# rabbits = conditions: rabbit, in vivo; cited from earlier work
# hyperlipidemic patients = assay: Clinical study: effect of the hypolipidemic agent on elevated triglyceride levels in blood; format: in vivo, human
# Description: Effect (in vivo) of the Hypolipidemic Agent on Elevated Triglyceride Levels in Blood-Clinical Study Patients attending the Endocrinology and Metabolism outpatient department of […] Medical College Hospital were included in the study. Patients with baseline serum total cholesterol above 200 mg/dl and/or serum triglycerides above 200 mg/dl after 6-12 weeks of low fat diet, exercise and weight reduction program, were included in the study. The compliance of the subjects for diet, weight and exercise schedules were monitored throughout the study. The number of patients recruited for the study were 37, including a child. There were […] in the age group of 30 to 62 years. Of the 37 patients, 23 patients were diabetic (type two diabetes) and 16 patients had essential hypertension, and two women and nine men were obese, the others being of normal weight. Two men and one person dropped out of the study, due to unknown causes. Of the original patients, 34 completed the study as per the protocol. In the initial visit, patient's height in centimeters, and weight in kilograms were recorded. After noting detailed history, physical examinations were performed on each patient. Informed consent was taken from all patients and, in the case of minors, from their parents. Blood samples were drawn for routine hematology, fasting and post prandial plasma glucose, blood urea, serum creatinine, liver function test and lipid profile. At each visit, the patient's weight and diet and exercise compliance was checked and blood samples for hematology and lipid profile were drawn. The patients were given 20 mg of Vanillin in gelatin capsule once a day before the main meal. At each visit, pill count was done to check the compliance of the drug intake. The data were recorded in the case record form and computer by authorized persons. The data were analyzed statistically.
# hyperlipidemic rats = assay: Dose response spectrum of the hypolipidemic agent, animal assay on hyperlipidemic diet; format: in vivo, Wistar male rats; design: Serum triglycerides, TOTAL / Serum triglycerides, LDL-VLDL / Serum triglycerides, HDL: unit not given here; conditions: six weeks; for Hypocholesterolemic effect, lowering: mainly LDL-VLDL fraction
# Excerpt: Dose Response Spectrum of the Hypolipidemic Agent—Animal Assay: The response in terms of the lowering of triglyceride component in the majority of the human cases were encouraging. This initiated a dose response test in young adult rats to determine a standard response curve. Such a curve would help in choosing the proper doses for further clinical trials and determine the adequacy and nature of the response. The tests were done on groups of young Wistar male rats, statistically distributed on the basis of body weight (125±5 g) into six groups, including a control group. […] The basal hyperlipidemic diet contained (g/100): casein 15, corn starch 40, cane sugar 10, hydrogenated fat 25, refined peanut oil 5, NRC vitamin mixture (choline free) 1, and salt mixture (Bernhardt-Tomarrelli modified) 4. Fat soluble vitamins at desired concentrations were added to the peanut oil. Vanillin was incorporated into the hyperlipidemic diet in replacement of starch at the desired levels. The duration of the test feeding period was six weeks. At the end of the experimental period, the rats were sacrificed and lipid analysis was done using standard procedures.
# guinea pigs = conditions: guinea pig, in vivo; cited from earlier work
# rats [1] = conditions: cited from earlier work
# rats [2] = conditions: cited from earlier work; remark: listed apart in the source
# [3] = man; cited from earlier work
# [4] = 20 mg/day oral, throughout the study
# [5] = mean of 10 patients, baseline mean 425.2, p < 0.0005 vs TG1, 20 mg/day
smiles,measurement,setting,value
"COc1cc(C=O)ccc1O [Vanillin, 4-hydroxy-3-methoxybenzaldehyde]",Acute oral LD50,rabbits,3000 mg/kg
same,Change in serum HDL level,hyperlipidemic patients; 20 mg/day,no significant change
same,Adverse effects in patients,hyperlipidemic patients; [4],No adverse effects
same,"Routine biochemistry, hematology and liver function tests",hyperlipidemic patients; [4],did not show any significant change
same,DELTA = (TG1 − TG3),"hyperlipidemic patients; individual patient, before treatment minus 6 weeks after treatment, 20 mg/day",243 mg/dL and 199 mg/dL and 218 mg/dL and 120 mg/dL and 168 mg/dL and 236 mg/dL and 133 mg/dL and 250 mg/dL and 158 mg/dL and 224 mg/dL
same,(DELTA/TG1) ×100,"hyperlipidemic patients; individual patient, reduction of serum triglyceride at 6 weeks, 20 mg/day",41.68% and 52.15% and 53.96% and 42.25% and 30.65% and 49.58% and 43.18% and 58.14% and 47.02% and 44.44%
same,"DELTA = (TG1 − TG3), mean","hyperlipidemic patients; mean of 10 patients, 20 mg/day",194.9 mg/dL
same,"(DELTA/TG1) ×100, mean","hyperlipidemic patients; mean of 10 patients, 6 weeks, 20 mg/day",46.34%
same,"TG2: fasting serum triglyceride level 3 weeks after treatment, mean",hyperlipidemic patients; [5],306.0** mg/dl
same,"TG3: fasting serum triglyceride level 6 weeks after treatment, mean",hyperlipidemic patients; [5],230.3 mg/dL
same,"Change from baseline total cholesterol, mean","hyperlipidemic patients; mean, 20 mg/day",74.5 mg/dL
same,Reduction of serum triglyceride,"hyperlipidemic patients; patient, about six weeks, 20 mg/day",up to 75%
same,Serum triglyceride after treatment,"hyperlipidemic patients; patient, initial value 3078 mg/dl, about six weeks, 20 mg/day",786 mg/dL
same,Liver total lipids,hyperlipidemic rats; 0.125% and 0.25% in diet,significantly higher
same,Triglycerides in the liver,hyperlipidemic rats; 0.125% and 0.25% in diet,higher accumulation
same,Decrease in HDL cholesterol,hyperlipidemic rats; 0.125% in diet,16%
same,"Hypocholesterolemic effect, lowering",hyperlipidemic rats; 0.125% in diet,18%
same,"Serum triglycerides, HDL",hyperlipidemic rats; 0.125% in hyperlipidemic diet,69.3 ± 7.0
same,"Serum triglycerides, LDL-VLDL",hyperlipidemic rats; 0.125% in hyperlipidemic diet,128.3 ± 4.1
same,"Serum triglycerides, TOTAL",hyperlipidemic rats; 0.125% in hyperlipidemic diet,197.6 ± 9.74
same,"Hypocholesterolemic effect, lowering",hyperlipidemic rats; 0.25% in diet,12%
same,"Serum triglycerides, HDL",hyperlipidemic rats; 0.25% in hyperlipidemic diet,74.3 ± 10.4
same,"Serum triglycerides, LDL-VLDL",hyperlipidemic rats; 0.25% in hyperlipidemic diet,147.1 ± 6.5
same,"Serum triglycerides, TOTAL",hyperlipidemic rats; 0.25% in hyperlipidemic diet,221.4 ± 16.5
same,Decrease in serum phospholipids,hyperlipidemic rats; 0.5% in diet,19%
same,"Serum triglycerides, HDL",hyperlipidemic rats; 0.5% in hyperlipidemic diet,29.8 ± 6.5
same,"Serum triglycerides, LDL-VLDL",hyperlipidemic rats; 0.5% in hyperlipidemic diet,127.0 ± 4.3
same,"Serum triglycerides, TOTAL",hyperlipidemic rats; 0.5% in hyperlipidemic diet,156.8 ± 10.4
same,Adipose fat,hyperlipidemic rats; 1% and 5% levels in diet,lowered
same,Decrease in serum phospholipids,hyperlipidemic rats; 1.0% in diet,14%
same,"Serum triglycerides, HDL",hyperlipidemic rats; 1.0% in hyperlipidemic diet,41.7 ± 5.5
same,"Serum triglycerides, LDL-VLDL",hyperlipidemic rats; 1.0% in hyperlipidemic diet,104.8 ± 4.9
same,"Serum triglycerides, TOTAL",hyperlipidemic rats; 1.0% in hyperlipidemic diet,146.5 ± 9.33
same,"Serum triglycerides, HDL",hyperlipidemic rats; 5.0% in hyperlipidemic diet,38.6 ± 4.8
same,"Serum triglycerides, LDL-VLDL",hyperlipidemic rats; 5.0% in hyperlipidemic diet,141.8 ± 10.3
same,"Serum triglycerides, TOTAL",hyperlipidemic rats; 5.0% in hyperlipidemic diet,180.4 ± 3.69
same,Liver weights,hyperlipidemic rats; any of the levels tested (0.125-5% in diet),not affected
same,Acute oral LD50,guinea pigs,1400 mg/kg
same,"Body and organ weights, hematology, and histopathology, test versus control rats","rats [1]; 1.0% of diet 16 weeks, 0.1% 27 to 28 weeks, 2.0% and 5.0% one year, 0.5%, 1.0% and 2.0% two years",no significant differences
same,Adverse effects,"rats [1]; rats, 5% diet for 90 days (earlier study)",growth depression and organ enlargement
same,Daily intake equal to the highest level without adverse effect,"rats [1]; rats, 5% in diet",~2500 mg/kg
same,Highest level consumed without adverse effect,"rats [1]; rats, level in diet",5%
same,Adverse effects,"rats [1]; rats, oral, once a day 20 mg/kg/d for 126 days",no adverse effects
same,Adverse effects,"rats [1]; rats, oral, twice per week 300 mg/kg/dose for 14 weeks",no adverse effects
same,Highest no-adverse-effect intake relative to estimated per capita daily intake,rats [1]; versus a 60-kg person,"~14,000 times"
same,Reduction in serum triglycerides,rats [2]; 0.15 mg % vanillin,24%
same,Metabolism and excretion,[3],converted to vanillic acid in the liver and is excreted in the urine
"COc1cc(CNC(=O)CCCC/C=C/C(C)C)ccc1O [capsaicin, reference compound]",Reduction in serum triglycerides,rats [2]; 0.3 mg % capsaicin,13%
